Source: publication PMC9127750, “Structure-based design of CDC42 effector interaction inhibitors for the treatment of cancer” (Cell reports, 2022)
Where “and” joins values, the source holds several entries; their conditions need not be identical. Identical values can stand only once.

System: WM3248 melanoma cells, 486 antibodies
Assay: Reverse phase protein arrays (RPPA)
Assay type: cell-based, Human
Conditions: normalized to 0
Description: Pellets were snap frozen in liquid nitrogen and shipped to MD Anderson Cancer Center core RPPA facility for RPPA analysis (Table S5). Three biological replicates for each sample were generated.
Nomenclatures on the RPPA heatmaps: name_of_antibody.species_of_antibody.status_of_antibody. V - antibody validated; C - validation of antibody in progress; Q - antibody nonspecific; E – under evaluation; antibodies raised in M - mouse, G - goat, R - rabbit, or T - rat.

## CN(C)c1cccc(Nc2cc(-c3ccccc3)nc(C3CCNCC3)n2)c1 [ARN22089, N1,N1-dimethyl-N3-(6-phenyl-2-(piperidin-4-yl)pyrimidin-4-yl)benzene-1,3-diamine]
10, average
  FoxO3a_pS318_S321.R.C Norm_10 Average: 1.029
  G6PD.R.V Norm_10 Average: 1.034
  GATA3.M.V Norm_10 Average: 1.281
  GATA6.R.V Norm_10 Average: 1.018
  GCLC.R.C Norm_10 Average: 0.996
  GCLM.R.V Norm_10 Average: 1.023
  GCN5L2.R.V Norm_10 Average: 0.928
  GRB2.R.V Norm_10 Average: 0.887
  GRB7.R.V Norm_10 Average: 0.924
  GSK.3B.R.C Norm_10 Average: 0.899
  GSK.3a.b.M.V Norm_10 Average: 1.031
  GSK.3a.b_pS21_S9.R.V Norm_10 Average: 1.266
  Gab2.R.V Norm_10 Average: 1.065
  Gli1.R.C Norm_10 Average: 1.005
  Gli3.R.C Norm_10 Average: 1.134
  Glucocorticoid.Receptor.R.V Norm_10 Average: 1.119
  Glutamate.D1.2.R.V Norm_10 Average: 1.156
  Granzyme.B.R.V Norm_10 Average: 0.968
  Grp75.R.C Norm_10 Average: 1.129
  Gys.R.V Norm_10 Average: 0.931
  Gys_pS641.R.V Norm_10 Average: 0.978
  H2AX_pS139.R.C Norm_10 Average: 0.977
  H2AX_pS140.M.C Norm_10 Average: 1.138
  HER2.M.V Norm_10 Average: 1.033
  HER2_pY1248.R.V Norm_10 Average: 0.915
  HER3_pY1289.R.C Norm_10 Average: 1.047
  HES1.R.V Norm_10 Average: 0.974
  eEF2.R.C Norm_10 Average: 1.492
  eEF2K.R.V Norm_10 Average: 1.201
  eIF4E.R.V Norm_10 Average: 0.994
  eIF4E_pS209.R.V Norm_10 Average: 0.960
  eIF4G.R.C Norm_10 Average: 0.972
10, replicates 1-3
  DNMT1.R.V Norm_10: 1.003 and 1.020 and 1.147
  DRP1.R.V Norm_10: 0.964 and 0.992
  DUSP4.R.V Norm_10: 0.853 and 0.881 and 0.939
  DUSP6.R.C Norm_10: 1.409 and 0.561
  DYRK1B.R.C Norm_10: 0.895 and 0.964 and 0.986
  Dvl3.R.V Norm_10: 0.922 and 1.053 and 0.910
  E2F1.R.V Norm_10: 1.049 and 1.123 and 1.077
  E.Cadherin.R.V Norm_10: 0.791 and 0.958
  EGFR.R.V Norm_10: 0.866 and 1.059 and 1.002
  EGFR_pY1068.R.C Norm_10: 0.894 and 0.930 and 1.047
  EGFR_pY1173.R.V Norm_10: 1.016 and 0.963 and 0.929
  EMA.M.C Norm_10: 0.676 and 1.005
  ENY2.M.C Norm_10: 0.937 and 1.132
  ER.a.R.V Norm_10: 0.989 and 0.867 and 0.907
  ER.a_pS118.R.V Norm_10: 1.111 and 0.755 and 0.869
  ERCC1.R.C Norm_10: 0.934 and 1.208 and 0.991
  ERCC5.R.C Norm_10: 0.985 and 0.864
  ERRalpha.R.V Norm_10: 0.941 and 1.106 and 0.995
  EVI1.R.V Norm_10: 0.864 and 1.146 and 1.022
  Elk1_pS383.R.C Norm_10: 1.027 and 0.931
  Enolase.1.R.V Norm_10: 0.940 and 1.265 and 1.276
  Enolase.2.R.V Norm_10: 0.995 and 1.149 and 0.982
  EphA2.R.V Norm_10: 0.867 and 0.985 and 0.905
  EphA2_pS897.R.C Norm_10: 0.664 and 0.906 and 1.028
  EphA2_pY588.R.C Norm_10: 0.917 and 0.980 and 0.925
  Erk5.R.V Norm_10: 0.835 and 0.809 and 0.986
  Ets.1.R.V Norm_10: 1.099 and 1.361 and 1.457
  FABP5.R.C Norm_10: 0.950 and 1.278 and 1.483
  FAK.R.C Norm_10: 0.896 and 0.913 and 1.054
  FAK_pY397.R.V Norm_10: 0.925 and 1.035 and 0.946
  FANCD2.R.V Norm_10: 0.931 and 0.985 and 0.874
  FASN.R.V Norm_10: 1.108 and 0.851 and 0.928
  FGF.basic.R.C Norm_10: 0.849 and 0.905 and 1.085
  FN14.R.C Norm_10: 1.121
  FOXM1.R.V Norm_10: 0.803 and 0.992 (2×)
  FOXO3.R.V Norm_10: 0.977 and 1.253 and 1.014
  FRS2.alpha_pY196.R.V Norm_10: 0.953 and 2.062 and 1.103
  FTO.R.V Norm_10: 0.987 and 1.185 and 1.127
  Fibronectin.R.V Norm_10: 0.978 and 1.062 and 1.006
  FoxO3a_pS318_S321.R.C Norm_10: 0.963 and 1.140 and 0.984
  G6PD.R.V Norm_10: 0.932 and 1.169 and 1.001
  GATA3.M.V Norm_10: 1.235 and 1.401 and 1.207
  GATA6.R.V Norm_10: 1.020 and 1.082 and 0.952
  GCLC.R.C Norm_10: 0.939 and 0.967 and 1.083
  GCLM.R.V Norm_10: 0.965 and 1.111 and 0.992
  GCN5L2.R.V Norm_10: 0.997 and 0.898 and 0.890
  GGPS1.M.V Norm_10: 0.913 and 1.085 and 1.264
  GRB2.R.V Norm_10: 0.867 and 0.876 and 0.919
  GRB7.R.V Norm_10: 0.829 and 0.838 and 1.106
  GSK.3B.R.C Norm_10: 0.867 and 0.924 and 0.907
  GSK.3a.b.M.V Norm_10: 0.998 and 1.049
  GSK.3a.b_pS21_S9.R.V Norm_10: 1.903 and 0.801
  Gab2.R.V Norm_10: 1.165 and 1.098 and 0.933
  Gli1.R.C Norm_10: 0.913 and 0.965 and 1.136
  Gli3.R.C Norm_10: 1.151 and 1.082 and 1.169
  Glucocorticoid.Receptor.R.V Norm_10: 1.159 and 1.201 and 0.996
  Glutamate.D1.2.R.V Norm_10: 0.997 and 1.319 and 1.150
  Glutaminase.R.C Norm_10: 0.936 and 1.126 and 1.162
  Granzyme.B.R.V Norm_10: 1.207 and 0.777 and 0.921
  Grp75.R.C Norm_10: 1.100 and 1.356 and 0.930
  Gys.R.V Norm_10: 0.972 and 0.858 and 0.963
  Gys_pS641.R.V Norm_10: 0.959 and 0.885
  H2AX_pS139.R.C Norm_10: 0.952 and 0.894
  H2AX_pS140.M.C Norm_10: 0.944 and 1.316 and 1.153
  HER2.M.V Norm_10: 1.003 and 1.056
  HER2_pY1248.R.V Norm_10: 0.907 and 0.828 and 1.009
  HER3.R.V Norm_10: 0.945 and 1.026 and 0.936
  HER3_pY1289.R.C Norm_10: 1.083 and 1.014
  HES1.R.V Norm_10: 1.156 and 0.918 and 0.849
  Heregulin.R.V Norm_10: 0.988 and 0.972 and 0.854
  eEF2.R.C Norm_10: 1.541 and 1.276 and 1.659
  eEF2K.R.V Norm_10: 1.101 and 1.387 and 1.115
  eIF4E.R.V Norm_10: 1.636 and 0.500 and 0.846
  eIF4E_pS209.R.V Norm_10: 0.984 and 0.803
  eIF4G.R.C Norm_10: 0.963
20, average
  DRP1.R.V Norm_20 Average: 0.964
  DUSP4.R.V Norm_20 Average: 0.723
  DUSP6.R.C Norm_20 Average: 1.555
  Dvl3.R.V Norm_20 Average: 1.031
  E2F1.R.V Norm_20 Average: 1.247
  E.Cadherin.R.V Norm_20 Average: 0.854
  EGFR.R.V Norm_20 Average: 1.132
  EGFR_pY1068.R.C Norm_20 Average: 0.914
  EGFR_pY1173.R.V Norm_20 Average: 1.048
  EMA.M.C Norm_20 Average: 0.783
  ENY2.M.C Norm_20 Average: 0.952
  ER.a.R.V Norm_20 Average: 0.959
  ER.a_pS118.R.V Norm_20 Average: 1.311
  ERCC5.R.C Norm_20 Average: 1.110
  ERRalpha.R.V Norm_20 Average: 0.963
  EVI1.R.V Norm_20 Average: 0.976
  Elk1_pS383.R.C Norm_20 Average: 1.105
  Enolase.2.R.V Norm_20 Average: 0.948
  EphA2.R.V Norm_20 Average: 0.748
  EphA2_pS897.R.C Norm_20 Average: 0.630
  EphA2_pY588.R.C Norm_20 Average: 0.974
  Erk5.R.V Norm_20 Average: 0.917
  Ets.1.R.V Norm_20 Average: 1.379
  FABP5.R.C Norm_20 Average: 1.251
  FAK.R.C Norm_20 Average: 0.978
  FAK_pY397.R.V Norm_20 Average: 0.925
  FANCD2.R.V Norm_20 Average: 0.851
  FASN.R.V Norm_20 Average: 0.957
  FGF.basic.R.C Norm_20 Average: 1.005
  FN14.R.C Norm_20 Average: 1.106
  FOXM1.R.V Norm_20 Average: 0.936
  FRS2.alpha_pY196.R.V Norm_20 Average: 1.059
  FTO.R.V Norm_20 Average: 1.058
  Fibronectin.R.V Norm_20 Average: 1.193
  FoxO3a_pS318_S321.R.C Norm_20 Average: 1.005
  G6PD.R.V Norm_20 Average: 0.954
  GATA3.M.V Norm_20 Average: 1.318
  GATA6.R.V Norm_20 Average: 0.955
  GCLC.R.C Norm_20 Average: 1.023
  GCLM.R.V Norm_20 Average: 0.992
  GCN5L2.R.V Norm_20 Average: 0.995
  GGPS1.M.V Norm_20 Average: 1.022
  GRB2.R.V Norm_20 Average: 0.934
  GRB7.R.V Norm_20 Average: 0.995
  GSK.3B.R.C Norm_20 Average: 0.882
  GSK.3a.b.M.V Norm_20 Average: 0.925
  GSK.3a.b_pS21_S9.R.V Norm_20 Average: 1.221
  Gab2.R.V Norm_20 Average: 1.169
  Gli3.R.C Norm_20 Average: 1.301
  Glucocorticoid.Receptor.R.V Norm_20 Average: 1.170
  Glutamate.D1.2.R.V Norm_20 Average: 1.186
  Grp75.R.C Norm_20 Average: 1.195
  Gys_pS641.R.V Norm_20 Average: 0.856
  H2AX_pS139.R.C Norm_20 Average: 1.433
  H2AX_pS140.M.C Norm_20 Average: 1.232
